# Test results reported in patent US10413505B1, “Pharmaceutical compositions and methods of using the same” (priority 2017, dated 2019).
# Assay: Example 3 plasma pharmacokinetics, normal hepatic function vs hepatic impairment
# Details: for AUC(0-t): AUClast (Geometric Least Squares Mean, ANOVA)
# [1] = hepatic impairment, single intranasal 160 mg cocaine HCl, plasma
# [2] = normal hepatic function, single intranasal 160 mg cocaine HCl, plasma
smiles,measurement,setting,value
"COC(=O)[C@H]1[C@@H](OC(=O)c2ccccc2)C[C@@H]2CC[C@H]1N2C [Cocaine, cocaine, reference compound]",Cmax,"both, human, plasma, inhaled or intranasal, 160 mg, Cmax (Geometric mean), hepatic impairment, single intranasal 160 mg cocaine HCl",41.2 ng/mL
same,Cmax,"both, human, plasma, inhaled or intranasal, 160 mg, Cmax (Geometric mean), normal hepatic function, single intranasal 160 mg cocaine HCl",44.2 ng/mL
same,Cmax,"both, human, plasma, inhaled or intranasal, 160 mg, Cmax (Mean), hepatic impairment, single intranasal 160 mg cocaine HCl",50.7 ng/mL
same,Cmax,"both, human, plasma, inhaled or intranasal, 160 mg, Cmax (Mean), normal hepatic function, single intranasal 160 mg cocaine HCl",50.6 ng/mL
same,Cmax,"both, human, plasma, inhaled or intranasal, 160 mg, Cmax (Median), hepatic impairment, single intranasal 160 mg cocaine HCl",42.6 ng/mL
same,Cmax,"both, human, plasma, inhaled or intranasal, 160 mg, Cmax (Median), normal hepatic function, single intranasal 160 mg cocaine HCl",53.6 ng/mL
same,Tmax,"both, human, plasma, inhaled or intranasal, 160 mg, Tmax (Geometric mean), hepatic impairment, single intranasal 160 mg cocaine HCl",0.828 h
same,Tmax,"both, human, plasma, inhaled or intranasal, 160 mg, Tmax (Geometric mean), normal hepatic function, single intranasal 160 mg cocaine HCl",0.422 h
same,Tmax,"both, human, plasma, inhaled or intranasal, 160 mg, Tmax (Mean), hepatic impairment, single intranasal 160 mg cocaine HCl",1.09 h
same,Tmax,"both, human, plasma, inhaled or intranasal, 160 mg, Tmax (Mean), normal hepatic function, single intranasal 160 mg cocaine HCl",0.431 h
same,Tmax,"both, human, plasma, inhaled or intranasal, 160 mg, Tmax (Median), hepatic impairment, single intranasal 160 mg cocaine HCl",0.75 h
same,Tmax,"both, human, plasma, inhaled or intranasal, 160 mg, Tmax (Median), normal hepatic function, single intranasal 160 mg cocaine HCl",0.5 h
same,half-life,"both, human, plasma, inhaled or intranasal, 160 mg, t1/2 (Geometric mean), hepatic impairment, single intranasal 160 mg cocaine HCl",4.99 h
same,half-life,"both, human, plasma, inhaled or intranasal, 160 mg, t1/2 (Geometric mean), normal hepatic function, single intranasal 160 mg cocaine HCl",6.62 h
same,half-life,"both, human, plasma, inhaled or intranasal, 160 mg, t1/2 (Mean), hepatic impairment, single intranasal 160 mg cocaine HCl",5.42 h
same,half-life,"both, human, plasma, inhaled or intranasal, 160 mg, t1/2 (Mean), normal hepatic function, single intranasal 160 mg cocaine HCl",8.11 h
same,half-life,"both, human, plasma, inhaled or intranasal, 160 mg, t1/2 (Median), hepatic impairment, single intranasal 160 mg cocaine HCl",5.63 h
same,half-life,"both, human, plasma, inhaled or intranasal, 160 mg, t1/2 (Median), normal hepatic function, single intranasal 160 mg cocaine HCl",6.93 h
same,AUC(0-inf),"both, human, plasma, other: intranasal (drug-soaked pledgets in the nasal cavity), 160 mg, AUCinf, range observed, hepatically impaired patients",88 to 366 ng·h/mL
same,AUC(0-t),"both, human, plasma, other: intranasal (drug-soaked pledgets in the nasal cavity), 160 mg, Grade B hepatic impairment",225 ng·h/mL
same,AUC(0-t),"both, human, plasma, other: intranasal (drug-soaked pledgets in the nasal cavity), 160 mg, Grade C hepatic impairment",142 ng·h/mL
same,AUC(0-t),"both, human, plasma, other: intranasal (drug-soaked pledgets in the nasal cavity), 160 mg, Normal hepatic function",79.2 ng·h/mL
same,Cmax,"both, human, plasma, other: intranasal (drug-soaked pledgets in the nasal cavity), 160 mg, Cmax (Geometric Least Squares Mean, ANOVA), Grade B hepatic impairment, excludes one subject with anomalous concentration at 7 minutes",46.4 ng/mL
same,Cmax,"both, human, plasma, other: intranasal (drug-soaked pledgets in the nasal cavity), 160 mg, Cmax (Geometric Least Squares Mean, ANOVA), Grade C hepatic impairment",30.1 ng/mL
same,Cmax,"both, human, plasma, other: intranasal (drug-soaked pledgets in the nasal cavity), 160 mg, Cmax (Geometric Least Squares Mean, ANOVA), Normal hepatic function",44.2 ng/mL
same,Cmax,"both, human, plasma, other: intranasal (drug-soaked pledgets in the nasal cavity), 160 mg, Cmax, range observed, hepatically impaired patients",16.2 to 85.2 ng/mL
same,Tmax,"both, human, plasma, other: intranasal (drug-soaked pledgets in the nasal cavity), 160 mg, Tmax (approximate), normal hepatic function, plasma",~0.5 h
same,Tmax,"both, human, plasma, other: intranasal (drug-soaked pledgets in the nasal cavity), 160 mg, Tmax, range observed, hepatically impaired patients",0.306 to 1.87 h
same,"plasma exposure after Tmax, times higher than normal hepatic function",hepatic impairment group,about 2.5 times
same,AUC0→t (Max),[1],523 ng·h/mL
same,AUC0→t (Min),[1],89.5 ng·h/mL
same,AUC0→∞ (Max),[1],528 ng·h/mL
same,AUC0→∞ (Min),[1],90.9 ng·h/mL
same,Clast (Geometric mean),[1],0.270 ng/mL
same,Clast (Max),[1],1.73 ng/mL
same,Clast (Mean),[1],0.393 ng/mL
same,Clast (Median),[1],0.211 ng/mL
same,Clast (Min),[1],0.115 ng/mL
same,Cmax (Max),[1],119 ng/mL
same,Cmax (Min),[1],17.1 ng/mL
same,Tlast (Geometric mean),[1],31.6 h
same,Tlast (Max),[1],32.0 h
same,Tlast (Mean),[1],31.6 h
same,Tlast (Median),[1],32.0 h
same,Tlast (Min),[1],1680 min
same,Tmax (Max),[1],3.00 h
same,Tmax (Min),[1],7.02 min
same,t1/2 (Geometric mean),[1],4.94 h
same,t1/2 (Max),[1],9.86 h
same,t1/2 (Min),[1],87.6 min
same,AUC0→t (Max),[2],235 ng·h/mL
same,AUC0→t (Min),[2],20.0 ng·h/mL
same,AUC0→∞ (Max),[2],237 ng·h/mL
same,AUC0→∞ (Min),[2],21.7 ng·h/mL
same,Clast (Geometric mean),[2],0.188 ng/mL
same,Clast (Max),[2],0.405 ng/mL
same,Clast (Mean),[2],0.210 ng/mL
same,Clast (Median),[2],0.160 ng/mL
same,Clast (Min),[2],0.102 ng/mL
same,Cmax (Max),[2],75.2 ng/mL
same,Cmax (Min),[2],7.64 ng/mL
same,Tlast (Geometric mean),[2],24.7 h
same,Tlast (Max),[2],32.0 h
same,Tlast (Mean),[2],26.0 h
same,Tlast (Median),[2],28.0 h
same,Tlast (Min),[2],720 min
same,t1/2 (Max),[2],22.5 h
same,t1/2 (Min),[2],110 min
